Values joined by “and” are separate entries in the source; they are usually repeats but may differ in a detail not shown here. Equal entries are not always repeated. Where two headings read alike, the source gives them in different places.
What was measured:
Type in all cases: in vivo, mouse
HFD-fed mice = assay: Oral GTT in normal-chow and high-fat diet (HFD)-fed mice; details: for Blood glucose / Plasma insulin: Glucose tolerance test, HFD, 30 mg/kg, individual animals
Procedure: Fig. 8 Acute and chronic DS20060511 treatment improves glucose intolerance in HFD-fed and db/db mice. a Blood glucose and plasma insulin levels during an oral GTT in normal-chow (NC)- and high-fat diet (HFD)-fed mice (n = 5). Vehicle or DS20060511 (30 mg kg^−1) was given orally 15 min before the oral glucose administration (1.5 g kg^−1). Values shown are means ± SEM. *P < 0.05, **P < 0.01, ***P < 0.001 vs. the HFD vehicle by the t-test. b Effects of 10 μM DS20060511 and 100 nM insulin on 2-DG uptake in muscles isolated from NC-fed (n = 6) and HFD-fed (n = 5) mice. Values shown are means ± SEM. **P < 0.01 by one-way ANOVA followed by Tukey’s test. c, d Changes in the blood glucose levels and AUC on day 1 and day 28 during refeeding (n = 6) in db/db mice treated chronically with DS20060511 (10 mg kg^−1 day^−1). Values shown are means ± SEM. *P < 0.05, **P < 0.01, ***P < 0.001 vs. vehicle by the t-test. e Change of the HbA1c levels in the db/db (n = 6) mice at 4 weeks. Values shown are means ± SEM. *P < 0.05 vs. vehicle by the t-test.
C57BL/6 and db/db mice were purchased from CLEA Japan, Tokyo, Japan. GLUT4- knockout mice were generated at RIKEN BioResource Center, Tsukuba, Japan, according to a previously described method. eNOS-knockout mice were kindly provided by Dr. Masato Tsutsui[41],[42]. The mice were group-housed under controlled illumination (12:12 h light-dark cycle) and temperature (23 ± 2 °C) conditions and given free access to normal chow and water, unless otherwise specified. The HFD-fed obese mice were prepared by feeding C57BL/6 mice a HFD for at least 8 weeks from 6 weeks of age. […] Male mice were used for all the experiments in this study. The animal care and experimental procedures used in the study were approved by The University of Tokyo Animal Care Committee (Approval number: 27-3), and the study was carried out in accordance with the Animal Experimentation Guidelines of Daiichi Sankyo Co., Ltd (Approved number: 20000411).
Mice that had been denied access to food overnight received the indicated oral dose of DS20060511 or vehicle 15 min prior to the glucose load (1.5 g kg^−1, except for eNOS-knockout mice, which received 3.0 g kg^−1). Then, after the oral glucose load, the blood glucose levels were measured using Glutest Every in samples obtained from the tail vein at the indicated timepoints. Plasma insulin concentrations were also measured with an ELISA kit (Morinaga Institute of Biological Science, Yokohama, Japan) in blood samples collected from the tail vein at the indicated timepoints.

[1] = Tissue concentrations 75 min after oral administration; details: for concentration at 75 min: 30 mg/kg, 30 mg/kg oral, individual mice
Procedure: C57BL/6 mice that had been denied access to food overnight received the indicated oral dose of DS20060511, and blood samples were collected from the tail vein at the indicated timepoints. Plasma samples for quantitation of DS20060511 were prepared by centrifugation. Another group of mice received oral administration DS20060511 (30 mg kg^−1) and euthanized 75 min later. The soleus and gastrocnemius muscles, heart, and inguinal WAT were removed and homogenized in water (5 vol.) for quantitation of the drug concentrations. Plasma samples and tissue homogenates were analyzed by LC-MS/MS (Nexera MP System, SHIMADZU, Kyoto, Japan; API4000 System, SCIEX, Framingham, MA). The tissue concentrations of the compound were calculated by assuming the volume of 1 g of tissue is 1 mL. Evaluation of the metabolic stability of the compound to mouse and human cytochrome P450 (CYP) was conducted as follows. The test compound (1 μM) was incubated with pooled liver microsomes (0.1 mg mL^−1) in sodium phosphate buffer (100 mM, pH 7.4) at 37 °C with an NADPH generating system: β-nicotinamide adenine dinucleotide phosphate (β-NADP) 1 mM, D-glucose 6-phosphate (G-6-P) 10 mM, glucose 6-phosphate dehydrogenase (G-6-PDH) 1 U mL^−1, and magnesium chloride 3.3 mM. After 30 min incubation, the reaction was terminated by addition of acetonitrile and samples were analyzed by LC-MS/MS. The results were expressed as the amount of compound remaining (expressed as a percentage), based on the ratio of the relative area to that in the control (without reaction).

WT and eNOSKO mice = assay: Oral GTT in wild-type and eNOS-knockout mice; details: Glucose tolerance test, 30 mg/kg, individual animals

In the case of `COc1ccc2c(C)c(C(=O)O)ccc2c1C1C2=C(CC(C)(C)CC2=O)OC2=C1C(=O)CC(C)(C)C2` [DS20060511], the Blood glucose (HFD-fed mice; 0 min) is reported as 194 mg/dL and 178 mg/dL and 193 mg/dL and 108 mg/dL and 185 mg/dL, the Plasma insulin (HFD-fed mice; 0 min) is reported as 0.79 ng/mL and 1.09 ng/mL and 0.57 ng/mL and 0.32 ng/mL and 0.69 ng/mL and the Blood glucose (HFD-fed mice; 15 min) is reported as 331 mg/dL and 278 mg/dL and 279 mg/dL and 180 mg/dL and 270 mg/dL. The Plasma insulin (HFD-fed mice; 15 min) was 3.22 ng/mL and 2.72 ng/mL and 2.47 ng/mL and 1.43 ng/mL and 1.91 ng/mL, the Blood glucose (HFD-fed mice; 30 min) was 200 mg/dL and 213 mg/dL and 232 mg/dL and 161 mg/dL and the Plasma insulin (HFD-fed mice; 30 min) was 1.03 ng/mL and 1.28 ng/mL and 0.97 ng/mL and 0.53 ng/mL and 0.78 ng/mL. For the same compound, the Blood glucose (HFD-fed mice; 60 min) was 209 mg/dL and 214 mg/dL and 235 mg/dL and 141 mg/dL and 229 mg/dL, the Blood glucose (HFD-fed mice; 90 min) was 199 mg/dL and 201 mg/dL and 204 mg/dL and 164 mg/dL and 209 mg/dL and the Blood glucose (HFD-fed mice; 120 min) was 188 mg/dL and 154 mg/dL and 227 mg/dL and 155 mg/dL and 189 mg/dL. For the same compound, the Blood glucose (HFD-fed mice; -15 min) was 212 mg/dL and 167 mg/dL and 176 mg/dL and 120 mg/dL and 197 mg/dL, the Plasma insulin (HFD-fed mice; -15 min) was 1.31 ng/mL and 2.09 ng/mL and 1.16 ng/mL and 0.67 ng/mL and the “blood glucose levels during oral GTT (in words)” value (HFD-fed mice; HFD-fed mice, 30 mg kg−1 po) was “significantly decreased the blood glucose levels”. For the same compound, the “plasma insulin levels during oral GTT (in words)” value (HFD-fed mice; HFD-fed mice, 30 mg kg−1 po) was “rather decreased”, the concentration at 75 min ([1]; C57BL/6, mouse, gastrocnemius muscle, po, Gastro. muscle, read-out: Conc. (µM) Gastro.) was 8 µM and the concentration at 75 min ([1]; C57BL/6, mouse, heart, po, heart, read-out: Conc. (µM) Heart) was 21.3 µM. For the same compound, the concentration at 75 min ([1]; C57BL/6, mouse, inguinal WAT, po, WAT, read-out: Conc. (µM) WAT) was 6.8 µM, the concentration at 75 min ([1]; C57BL/6, mouse, soleus muscle, po, soleus, read-out: Conc. (µM) Soleus) was 10.8 µM and the concentration at 75 min ([1]; Gastro. muscle, read-out: Conc. (µM) Gastro.) was 9.3 µM and 7.1 µM and 8.8 µM. The concentration at 75 min ([1]; WAT, read-out: Conc. (µM) WAT) was 5.9 µM and 5.0 µM and 4.1 µM, the concentration at 75 min ([1]; heart, read-out: Conc. (µM) Heart) was 21.0 µM and 19.6 µM and 18.0 µM and the “concentrations in tissues (in words)” value ([1]; skeletal muscle, WAT, heart, 75 min after oral 30 mg kg−1) was “almost comparable concentrations among the skeletal muscle, WAT, and heart”. For the same compound, the concentration at 75 min ([1]; soleus, read-out: Conc. (µM) Soleus) was 13.8 µM and 9.8 µM and 11.1 µM, the Blood glucose (WT and eNOSKO mice; 0 min) was 77 mg/dL and the Blood glucose (WT and eNOSKO mice; -15 min) was 65 mg/dL.
